These are literature values, as cited in publication PMC8942822 (The Journal of Biological Chemistry, 2022).

For data set [1], the target named is T1, SpaASLH (SLH domain trimer of S-layer protein SpaA, wild-type) (Paenibacillus alvei, UniProt C1JZ07).
T1 sequence (C1JZ07 21-193): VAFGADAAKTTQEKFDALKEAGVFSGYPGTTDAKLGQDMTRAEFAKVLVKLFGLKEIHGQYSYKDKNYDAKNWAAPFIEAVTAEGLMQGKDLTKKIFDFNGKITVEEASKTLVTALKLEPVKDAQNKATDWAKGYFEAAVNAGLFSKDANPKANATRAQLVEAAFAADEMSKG

For another data set, the target named is T2, SpaASLH/G109A (Paenibacillus alvei, UniProt C1JZ07, G109A).
T2 sequence (C1JZ07 21-193 G109A): T1 sequence (C1JZ07 21-193)

For a further data set, the system named is SpaASLH/G46A/G109A. The following applies: 20 °C, SpaASLH/G46A/G109A double mutant, previously published.
Where [2] appears, read: ITC, 20 °C, SpaASLH wild-type, previously published.
Where [3] appears, read: ITC, 20 °C, SpaASLH/G109A, previously published.

Consider `CO[C@@H]1O[C@@H]2CO[C@](C)(C(=O)O)O[C@H]2[C@H](O[C@@H]2O[C@H](CO)[C@@H](O)[C@H](O)[C@H]2NC(C)=O)[C@@H]1NC(C)=O` [internal disaccharide, β-D-GlcNAc-(1→3)-4,6-Pyr-β-D-ManNAcOMe], for which the “Binding by ITC” value in data set [1] (ITC experiments with internal-repeat SCWP disaccharide) is on record as “lack of corresponding measurable binding”.

As usually defined, the Kd is the constant that tells how readily two partners part at equilibrium. Regarding `CO[C@@H]1O[C@@H]2CO[C@](C)(C(=O)O)O[C@H]2[C@H](O)[C@@H]1NC(C)=O` [monosaccharide, 4,6-Pyr-β-D-ManNAcOMe], in data set [1] (setting [2]), the KA is listed as 3.48 × 10^7 ± 0.36 M^−1, the Kd is 29 nM, the Stoichiometry is 0.91 ± 0.04 and the ΔG was -10.06 ± 0.155 kcal/mol. Besides, in data set [1] (setting [2]), the ΔH is -21 ± 3.733 kcal/mol and the “−TΔS” value was 10.93 ± 3.826 kcal/mol. Besides, the “Decrease of ITC binding affinity, G109A mutant (G1 binding) vs wild-type” value at SpaASLH/G109A is recorded as “tenfold”. Besides, at SpaASLH/G109A (setting [3]), the KA is on record as 4.48 × 10^6 ± 0.62 M^−1, the Kd is 226 nM, the Stoichiometry is listed as 0.92 ± 0.04 and the ΔG is -8.917 ± 0.0789 kcal/mol. Also, at SpaASLH/G109A (setting [3]), the ΔH is -12.1 ± 1.74 kcal/mol and the “−TΔS” value is 3.186 ± 1.67 kcal/mol. Moreover, the “Binding by ITC” value in the data set on SpaASLH/G46A/G109A is given as “No binding”.
